In ChEMBL document CHEMBL3808389, “Stable and biocompatible cystine knot peptides from the marine sponge Asteropus sp” (Bioorg Med Chem, 2016):
Where a SMILES comes first, the peptide text is derived from it. Bridges are numbered along the chain shown (N, C = ends). [ ]: non-standard residue; d: D form. ξ: configuration not given here. pGlu = O=C1CC[C@@H](C(=O)O)N1; ξpGlu = O=C1CCC(C(=O)O)N1

Tests used:
[1] = Toxicity in Thamnaconus modestus RBC assessed as hemolytic activity at 0.08 to 50 uM measured after 1 hr by spectrophotometric analysis; assay type: cell-based; conditions: erythrocyte
[2] = Toxicity in human RBC assessed as hemolytic activity at 50 uM measured after 1 hr by spectrophotometric analysis; assay type: cell-based, Erythrocyte; conditions: erythrocyte, 1 h, 50 µM
[3] = test system: Mus musculus; assay: Toxicity in mouse assessed as aggressiveness at 40 mg/kg, ip after 12 hrs; assay type: organism-based; conditions: in vivo
[4] = Thermal stability in Tris-acetate-EDTA buffer of pH 8.3 at 100 degC measured upto 12 hrs by reverse-phase HPLC analysis; assay type: physicochemical; conditions: pH 8.3, 12 h
[5] = test system: RAW264.7; assay: Cytotoxicity against mouse RAW264.7 cells assessed as cell viability at 10 or 40 ug/ml measured after 24 hrs by WST assay; assay type: cell-based; conditions: raw264.7, 24 h
[6] = test system: Mus musculus; assay: Toxicity in mouse assessed as paralysis at 40 mg/kg, ip after 12 hrs; assay type: organism-based; conditions: in vivo
[7] = test system: Mus musculus; assay: Toxicity in mouse assessed as stiff tail at 40 mg/kg, ip after 12 hrs; assay type: organism-based; conditions: in vivo
[8] = test system: Mus musculus; assay: Toxicity in mouse assessed as mortality at 40 mg/kg, ip after 7 days; assay type: organism-based; conditions: in vivo, 168 h
[9] = test system: RAW264.7; assay: Toxicity in mouse RAW264.7 cells assessed as in induction of Nitric oxide production at 10 or 40 ug/ml measured after 24 hrs by Griess reaction method; assay type: cell-based; conditions: raw264.7, 24 h
[10] = test system: Mus musculus; assay: Toxicity in mouse assessed as convulusion at 40 mg/kg, ip after 12 hrs; assay type: organism-based; conditions: in vivo
[11] = test system: Mus musculus; assay: Toxicity in mouse assessed as behavior changes at 40 mg/kg, ip after 7 days; assay type: organism-based; conditions: in vivo, 168 h
[12] = test system: Mus musculus; assay: Toxicity in mouse assessed as appearance changes at 40 mg/kg, ip after 7 days; assay type: organism-based; conditions: in vivo, 168 h
[13] = Cytotoxicity against rat Ac2F cells at 30 uM; assay type: cell-based
[14] = Toxicity in human RBC assessed as hemolytic activity at 2 uM measured after 1 hr by spectrophotometric analysis; assay type: cell-based; conditions: erythrocyte

Compound | Activity [1] | Activity [2] | Activity [3] | Stability [4] | Activity [5] | Activity [6] | Activity [7] | Activity [8] | Activity [9] | Activity [10] | Activity [11] | Activity [12] | Activity [13] | Activity [14]
CC[C@H](C)[C@@H]1NC(=O)[C@@H]2CSSC[C@@H]3NC(=O)[C@H](CO)NC(=O)[C@H](CCC(=O)O)NC(=O)CNC(=O)[C@H](CCC(=O)O)NC(=O)[C@H](Cc4ccccc4)NC(=O)[C@H](C)NC(=O)[C@@H](NC(=O)CNC(=O)C4CCC(=O)N4)CSSC[C@H](NC(=O)[C@H](CSSC[C@@H](C(=O)N[C@@H](Cc4ccc(O)cc4)C(=O)N[C@@H](Cc4ccc(O)cc4)C(=O)N[C@@H](CC(C)C)C(=O)O)NC(=O)[C@H]([C@@H](C)O)NC(=O)CNC(=O)[C@H](CC(=O)O)NC(=O)[C@@H]4CCCN4C(=O)[C@H](CC(N)=O)NC(=O)CNC(=O)[C@@H]4CCCN4C1=O)NC(=O)[C@@H]1CCCN1C(=O)[C@H](Cc1ccc(O)cc1)NC(=O)[C@H](Cc1ccccc1)NC(=O)[C@H](CCC(N)=O)NC(=O)[C@H](C(C)C)NC(=O)[C@H](CC(N)=O)NC3=O)C(=O)N1CCC[C@H]1C(=O)NCC(=O)N[C@@H](CC(C)C)C(=O)NCC(=O)N[C@@H](CC(C)C)C(=O)N[C@@H]([C@@H](C)O)C(=O)N2 (stereo partly specified) ([ξpGlu]GCAFEGESCNVQFYPCCPGLGLTCIPGNPDGTCYYL-OH; disulfide 3-18, 10-25, 17-34) | Non-toxic | Non-toxic | Non-toxic | Stable | Non-toxic | Non-toxic | Non-toxic | Non-toxic | Non-toxic | Non-toxic | Non-toxic | Non-toxic | – | –
CC[C@H](C)[C@H](NC(=O)[C@@H](NC(=O)[C@H](Cc1ccc(O)cc1)NC(=O)[C@@H]1CSSC[C@@H]2NC(=O)[C@@H]3CCCN3C(=O)[C@H](CC(N)=O)NC(=O)[C@H](Cc3ccccc3)NC(=O)[C@H](CCC(=O)O)NC(=O)[C@H](C(C)C)NC(=O)[C@H](CC(=O)O)NC(=O)[C@@H]3CSSC[C@H](NC(=O)[C@H]([C@@H](C)O)NC(=O)[C@H](CC(C)C)NC(=O)[C@@H]4CCCN4C(=O)[C@@H]4CCCN4C(=O)[C@H](CSSC[C@H](NC(=O)[C@H](CC(=O)O)NC(=O)[C@@H]4CCC(=O)N4)C(=O)N4CCC[C@H]4C(=O)NCC(=O)N[C@@H](CCC(=O)O)C(=O)NCC(=O)N[C@@H](CCC(=O)O)C(=O)N[C@@H](CCC(N)=O)C(=O)N3)NC2=O)C(=O)N[C@@H]([C@@H](C)CC)C(=O)N2CCC[C@H]2C(=O)NCC(=O)N[C@@H](CC(=O)O)C(=O)N2CCC[C@H]2C(=O)N[C@@H](Cc2ccc(O)cc2)C(=O)NCC(=O)N[C@@H]([C@@H](C)CC)C(=O)N1)[C@@H](C)CC)C(=O)O ([pGlu]DCPGEGEQCDVEFNPCCPPLTCIPGDPYGICYII-OH; disulfide 3-18, 10-23, 17-32) | Non-toxic | Non-toxic | Non-toxic | Stable | Non-toxic | Non-toxic | Non-toxic | Non-toxic | Non-toxic | Non-toxic | Non-toxic | Non-toxic | Non-toxic | –
CC[C@H](C)[C@H](NC(=O)CN)C(=O)NCC(=O)N[C@@H](C)C(=O)N[C@H](C(=O)N[C@@H](CC(C)C)C(=O)N[C@@H](CCCCN)C(=O)N[C@H](C(=O)N[C@@H](CC(C)C)C(=O)N[C@H](C(=O)N[C@H](C(=O)NCC(=O)N[C@@H](CC(C)C)C(=O)N1CCC[C@H]1C(=O)N[C@@H](C)C(=O)N[C@@H](CC(C)C)C(=O)N[C@H](C(=O)N[C@@H](CO)C(=O)N[C@@H](Cc1c[nH]c2ccccc12)C(=O)N[C@H](C(=O)N[C@@H](CCCCN)C(=O)N[C@@H](CCCNC(=N)N)C(=O)N[C@@H](CCCCN)C(=O)N[C@@H](CCCNC(=N)N)C(=O)N[C@@H](CCC(N)=O)C(=O)N[C@@H](CCC(N)=O)C(N)=O)[C@@H](C)CC)[C@@H](C)CC)[C@@H](C)O)[C@@H](C)O)C(C)C)C(C)C [MELITTIN] | – | – | – | – | – | – | – | – | – | – | – | – | – | Toxic
